Values of other authors, collected in patent US20210268011A1, “AMPK ACTIVATING AGENT” (ORYZA OIL & FAT CHEMICAL CO., LTD., priority 2018, published 2021).

System: AMPK
Details: recent research, Non-patent Document 4; cited from earlier work

Question: For `CN(C)C(=N)N=C(N)N` [metformin], which AMPK activation is on record?
Answer: activated
